Patent US10011813B2, “Methane oxidation methods and compositions” (California Institute of Technology, priority 2015, dated 2018)
In brackets after ≈: the same amount, converted by molar mass. Several values for one entry are separate records, joined by “and”; a condition that tells them apart may be missing. Equal values may be shown once.

Tests used:
[1] = tested on: methane seep sediment (ANME archaea); test: AOM rate measurement via 13C-methane (newly formed DIC) in methane seep sediment incubations; format: cell-based, ANME-2a and ANME-2c; details: for Rate relative to AOM with sulfate: 10 mM; for DIC formed: after 21-day incubation
From the text: General description of methane oxidation measurements via ^13C-methane. Methane oxidation was quantified by determining the production of inorganic carbon (“CO2”). Accurate quantification of the concentration of inorganic carbon formed from methane oxidation is challenging due to 4 main reasons:
A defined amount of added DIC in artificial, buffered seawater was used with a low calcium concentration to prevent carbonate precipitation (see medium composition). As ^13CH4 was the only ^13C-enriched carbon source added, the newly formed ^13C-DIC must be derived from methane. For low methane oxidation rates (less than ca. 5% relative to sulfate as the oxidant or electron acceptor), however, enzyme-catalyzed isotope exchange between methane and DIC, needs to be taken into account, because it contributes to ^13C enrichment of the DIC without net methane oxidation, resulting in an overestimation of net methane oxidation. […] Details of both methods, the ^13CH4 experiments and the standard addition are described herein.
Incubation conditions for AOM rate measurement. Each incubation vial was set up with 1.0 cm^3 wet sediment (wet sediment=volume of sediment after allowing the sediment slurry settle for 48 h) in total slurry volume of […] as follows: Sterile serum vials were closed with butyl rubber stoppers (volume=12.9 ml after closing) and flushed with methane. 1.0 mL ^13CH4 (99% ^13C, Cambridge Isotope Laboratories, containing 0.05 vol % ^13CO2 as an impurity) was introduced anaerobically. 2.0 mL of artificial, anaerobic seawater containing 2.5× the target concentration of the corresponding electron acceptor was injected into the serum vial cooled on ice. For AQDS and 1,5-AQDS, this was a suspension corresponding to 25 mM (see TABLE 3).
The 1 L pyrex bottle with the sediment in the sulfate-free medium (1 part wet sediment in 3 parts of slurry volume) was vigorously shaken each time and 3.0 mL of slurry immediately removed and injected into the individual serum bottles. Each stoppered serum vial was supplemented with unlabeled methane (0.250 MPa overpressure: pressure gauge SSI Technologies, Inc., Media Gauge™) shaken and stored inverted at 4° C. (final headspace: 0.35 MPa methane, with ca. 4% ^13CH4). The exact fractional abundance of ^13C in the methane was quantified via ^1H-NMR spectroscopy for individual incubations.
AOM rate measurements (quantification of newly formed DIC based on ^13CH4). For ^13C-DIC analysis, 0.25 mL of the medium above the settled sediment in the microcosm was sampled with a disposable needle and syringe at each time point (same intervals for all experiments) and centrifuged (16000 rcf, 5 min). The supernatant was transferred into 0.6 mL eppendorf tubes, flash frozen in N2 (l), and stored at −20° C. until measurement. 150 μL of the thawed supernatant was then added to He-flushed vials containing 100 μL H3PO4 (85%). The resulting CO2 was analyzed for the isotopic enrichment (^13F(tn)) on a GC-IR-MS GasBench II (Thermo Scientific). The amount of DIC newly formed (Δ[DIC](tn), see FIG. 6B) was calculated from the measured ^13F (fractional abundance of ^13C), neglecting isotope effects on AOM according to Equation (1): Δ[DIC](tn)=[DIC](t0)*(^13F(tn)−^13F(t0))/(^13F(CH4)−^13F(tn)) (EQ. 1)

[2] = tested on: methane seep sediment (ANME archaea); test: Quantification of reduced AQDS by iodometry in AOM incubations; format: cell-based, ANME-2a and ANME-2c; details: after 21-day incubation
Description: (§1) Quantification of reduced AQDS by iodometry. Reduced AQDS (2,6-AQH2DS) was quantified via iodimetric titration in the anaerobic chamber. A standard solution of ca. 20 mM KI3 was prepared as follows: iodine (254 mg, 2.0 mmol) and potassium iodide (1.66 g, 10 mmol) were dissolved in 100 mL DI water. After 2 days, the clear, dark solution was N2-sparged and brought into the anaerobic chamber. The exact concentration of the KI3 standard solution was quantified to be 19.5 mM via duplicate titration with sodium thiosulfate (exactly 101.5 mM, N2-sparged). Procedure for the quantification of reduced AQDS in the incubations: 1000 μL anaerobic assay solution centrifuged in the anaerobic chamber+200 μL anaerobic HEPES (1.0 M, pH=7.5)+KI3 standard solution as needed until color minimum, added in steps of 100 μL first, then in steps of 10 μL when closer to the equivalence point.

[3] = Quantification of AQDS solubility in the incubation medium; format: physicochemical
Description: Quantification of AQDS solubility in the incubation medium. Different regioisomers of AQDS (1,5-AQDS, 2,6-AQDS and 2,7-AQDS) were separately added to the modified artificial seawater described above, to a targeted final concentration of 25 mM. The suspensions were ultra-sonicated at room temperature to dissolve as much of the AQDS as possible. The tubes were kept at 4° C. or at 22.5° C. overnight. The tubes were centrifuged at 4° C. or 22.5° C. (16000 rcf, 30 min). The supernatant (300 μL) was mixed with 300 μL acetate (10.0 mM) as the internal standard and 100 μL deuterated water (99.9% D, Cambridge Isotope Laboratories) was added. The concentration of AQDS was obtained from integration of the ^1H-NMR spectra by comparison relative to the acetate standard.

methane seep sediment = test: Control experiments without methane (sediment with AQDS under nitrogen); format: cell-based; details: AQDS 10 mM, after 3 weeks
Description: as §1
Control experiments without methane. […] To confirm that the methanotrophic microorganisms in the sediment had not been killed during the nitrogen+AQDS incubation, methane was later injected into these incubation bottles after 3 weeks.

[4] = tested on: methane seep sediment (ANME archaea); test: AOM rate measurement via 13C-methane (newly formed DIC) in methane seep sediment incubations; format: cell-based, ANME-2a and ANME-2c; details: 22.5° C.

SMILES: O=C1c2ccc(S(=O)(=O)O)cc2C(=O)c2ccc(S(=O)(=O)O)cc21 [AQDS, 9,10-anthraquinone-2,6-disulfonate]
- Rate relative to AOM with sulfate ([1]; no MoO4^2−): 74%
- Rate relative to AOM with sulfate ([1]; with 25 mM MoO4^2−): 83%
- DIC formed from 13C-methane per vial ([1]; 50 mmol AQDS (10 mM), no sulfate, 21-day incubation at 4° C.): approximately 12.5 mmol
- DIC formed ([1]; AQDS 10 mM + MoO4^2− 25 mM): 2.59 mM and 2.82 mM
- DIC formed ([1]; AQDS 10 mM, 4° C.): 2.39 mM and 2.64 mM
- initial rates of AOM compared with sulfate ([1]; first 6 days, 4° C.): equivalent
- AQH2DS (final concentration of reduced AQDS) ([2]; AQDS 10 mM + MoO4^2− 25 mM): 9.2 mM and 9.8 mM
- AQH2DS (final concentration of reduced AQDS) ([2]; AQDS 10 mM): 8.6 mM and 9.6 mM
- Solubility in the incubation medium ([3]; 4° C.): 900 µM (≈ 332 µg/mL)
- Solubility in the incubation medium ([3]; 22.5° C.): 1900 µM (≈ 700 µg/mL)
- reduced AQDS generated without methane (methane seep sediment): less than 1 mM
- AOM rates compared with sulfate [4]: exceeded
